From ChEMBL document CHEMBL5230123, “A comprehensive review of monoamine oxidase inhibitors as Anti-Alzheimer's disease agents: A review” (Eur J Med Chem, 2020)

Experiments:
[1] = molecular target: T1, Amine oxidase [flavin-containing] B (Homo sapiens, UniProt P27338); assay: Inhibition of human MAO-B using tyramine as substrate by amplex red assay
T1 sequence (P27338 whole entry): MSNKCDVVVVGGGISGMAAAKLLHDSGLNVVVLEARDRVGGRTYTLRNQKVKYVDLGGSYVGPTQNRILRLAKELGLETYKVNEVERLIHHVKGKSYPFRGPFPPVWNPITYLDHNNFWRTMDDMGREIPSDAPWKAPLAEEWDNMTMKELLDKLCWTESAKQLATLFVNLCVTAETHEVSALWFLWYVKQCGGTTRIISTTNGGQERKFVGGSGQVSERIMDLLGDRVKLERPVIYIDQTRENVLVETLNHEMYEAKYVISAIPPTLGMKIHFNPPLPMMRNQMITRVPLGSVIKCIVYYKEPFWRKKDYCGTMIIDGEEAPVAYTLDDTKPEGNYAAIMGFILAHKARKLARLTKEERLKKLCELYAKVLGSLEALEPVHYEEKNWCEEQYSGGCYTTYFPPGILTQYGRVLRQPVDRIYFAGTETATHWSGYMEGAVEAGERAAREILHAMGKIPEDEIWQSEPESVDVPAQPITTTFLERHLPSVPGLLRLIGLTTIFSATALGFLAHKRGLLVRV

[2] = molecular target: T1, Amine oxidase [flavin-containing] B; assay: Inhibition of MAO-B (unknown origin) using tyramine hydrochloride as substrate incubated for 30 mins followed by substrate addition and measured after 5 mins by spectrophotometric assay
[3] = molecular target: T1, Amine oxidase [flavin-containing] B; assay: Inhibition of MAO-B (unknown origin) using as tyramine as substrate by Ampliflu red reagent based fluorometric method
Cholinesterase = Cholinesterase (Equus caballus, UniProt P81908); assay: Inhibition of horse serum BuChE using butyrylthiocholine iodide as substrate preincubated for 5 mins followed by substrate addition and measured for 20 mins by DTNB reagent based Ellman's method
Sequence of Cholinesterase (P81908 whole entry): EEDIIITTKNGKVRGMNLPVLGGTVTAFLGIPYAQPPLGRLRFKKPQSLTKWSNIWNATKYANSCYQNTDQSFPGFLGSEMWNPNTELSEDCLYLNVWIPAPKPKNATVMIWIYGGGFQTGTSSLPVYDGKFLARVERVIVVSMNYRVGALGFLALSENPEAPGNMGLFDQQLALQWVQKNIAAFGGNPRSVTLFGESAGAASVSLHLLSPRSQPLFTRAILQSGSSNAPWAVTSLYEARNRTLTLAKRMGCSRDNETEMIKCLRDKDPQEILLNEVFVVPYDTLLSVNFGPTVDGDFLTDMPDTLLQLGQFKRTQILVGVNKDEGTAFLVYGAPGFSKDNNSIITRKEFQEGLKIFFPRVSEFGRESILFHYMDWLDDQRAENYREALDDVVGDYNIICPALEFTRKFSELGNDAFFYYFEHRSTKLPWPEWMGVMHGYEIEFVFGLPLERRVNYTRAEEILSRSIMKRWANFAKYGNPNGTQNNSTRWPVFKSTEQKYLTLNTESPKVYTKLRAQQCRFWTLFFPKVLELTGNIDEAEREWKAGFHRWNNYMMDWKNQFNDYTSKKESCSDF

Acetylcholinesterase [4] = molecular target: T2, Acetylcholinesterase (Electrophorus electricus, UniProt O42275); assay: Inhibition of electric eel AChE using acetylthiocholine iodide as substrate preincubated for 5 mins followed by substrate addition and measured for 20 mins by DTNB reagent based Ellman's method
T2 sequence (O42275 whole entry): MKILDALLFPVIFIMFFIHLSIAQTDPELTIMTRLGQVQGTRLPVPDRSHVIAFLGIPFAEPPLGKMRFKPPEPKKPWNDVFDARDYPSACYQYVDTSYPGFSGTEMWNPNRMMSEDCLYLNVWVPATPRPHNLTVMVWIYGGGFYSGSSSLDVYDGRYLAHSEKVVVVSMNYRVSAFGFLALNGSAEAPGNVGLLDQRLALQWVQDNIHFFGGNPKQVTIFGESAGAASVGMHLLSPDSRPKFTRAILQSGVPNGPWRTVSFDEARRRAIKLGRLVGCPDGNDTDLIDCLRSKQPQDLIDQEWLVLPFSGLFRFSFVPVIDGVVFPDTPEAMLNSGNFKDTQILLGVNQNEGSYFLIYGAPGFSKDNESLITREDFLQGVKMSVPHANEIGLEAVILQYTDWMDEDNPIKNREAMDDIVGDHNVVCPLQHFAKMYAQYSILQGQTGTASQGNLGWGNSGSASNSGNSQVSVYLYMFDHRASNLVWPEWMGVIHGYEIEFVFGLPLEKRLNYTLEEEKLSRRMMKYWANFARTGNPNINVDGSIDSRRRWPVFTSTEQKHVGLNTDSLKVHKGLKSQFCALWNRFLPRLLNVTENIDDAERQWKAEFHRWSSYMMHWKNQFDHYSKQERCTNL

[5] = molecular target: T3, Amine oxidase [flavin-containing] B (Rattus norvegicus, UniProt P19643); assay: Inhibition of MAO-B expressed in Wistar rat liver preincubated for 30 mins followed by 4-(trifluoromethyl) benzylamine addition and measured after 90 mins by microplate reader analysis; type: tissue-based
T3 sequence (P19643 whole entry): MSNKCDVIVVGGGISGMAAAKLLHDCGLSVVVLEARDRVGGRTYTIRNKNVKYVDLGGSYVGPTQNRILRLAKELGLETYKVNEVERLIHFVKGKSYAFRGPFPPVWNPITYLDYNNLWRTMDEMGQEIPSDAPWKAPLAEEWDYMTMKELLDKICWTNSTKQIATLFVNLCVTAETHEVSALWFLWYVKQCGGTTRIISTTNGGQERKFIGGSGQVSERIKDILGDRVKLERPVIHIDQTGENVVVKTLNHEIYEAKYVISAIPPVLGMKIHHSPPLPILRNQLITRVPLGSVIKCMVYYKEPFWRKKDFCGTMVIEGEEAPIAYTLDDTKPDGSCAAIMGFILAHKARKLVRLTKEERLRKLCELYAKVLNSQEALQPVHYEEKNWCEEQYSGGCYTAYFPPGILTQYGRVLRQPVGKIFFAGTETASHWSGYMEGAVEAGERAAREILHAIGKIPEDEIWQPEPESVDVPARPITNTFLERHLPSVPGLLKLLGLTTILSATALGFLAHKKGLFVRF

[6] = molecular target: T3, Amine oxidase [flavin-containing] B; assay: Inhibition of rat brain mitochondria MAO-B using benzylamine as substrate incubated for 30 mins by microplate reader assay
[7] = molecular target: T3, Amine oxidase [flavin-containing] B; assay: Inhibition of rat brain mitochondria MAO-B using p-tyramine as substrate incubated for 15 mins followed by substrate addition and measured for 15 by microplate fluorescence reader analysis
[8] = molecular target: T4, Amine oxidase [flavin-containing] A (Homo sapiens, UniProt P21397); assay: Inhibition of MAO-A (unknown origin) using kynuramine as substrate preincubated for 10 mins followed by substrate addition and measured after 20 mins by fluorescence microplate reader assay
T4 sequence (P21397 whole entry): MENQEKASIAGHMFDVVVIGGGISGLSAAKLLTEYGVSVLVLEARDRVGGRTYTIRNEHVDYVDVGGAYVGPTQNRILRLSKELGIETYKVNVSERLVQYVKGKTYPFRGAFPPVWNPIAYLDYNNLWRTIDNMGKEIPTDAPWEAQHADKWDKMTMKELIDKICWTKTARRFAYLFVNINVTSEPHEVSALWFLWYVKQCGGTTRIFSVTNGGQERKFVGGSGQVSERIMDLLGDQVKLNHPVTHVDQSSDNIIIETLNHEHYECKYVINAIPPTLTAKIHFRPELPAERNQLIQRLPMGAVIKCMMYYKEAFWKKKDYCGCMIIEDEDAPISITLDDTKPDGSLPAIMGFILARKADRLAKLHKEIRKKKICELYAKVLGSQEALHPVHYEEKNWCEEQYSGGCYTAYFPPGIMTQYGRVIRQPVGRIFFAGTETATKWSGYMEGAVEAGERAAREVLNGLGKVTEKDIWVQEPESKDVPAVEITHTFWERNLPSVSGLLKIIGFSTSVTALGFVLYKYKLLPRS

[9] = molecular target: T1, Amine oxidase [flavin-containing] B; assay: Inhibition of MAO-B (unknown origin) using kynuramine as substrate preincubated for 10 mins followed by substrate addition and measured after 20 mins by fluorescence microplate reader assay
[10] = molecular target: T4, Amine oxidase [flavin-containing] A; assay: Inhibition of recombinant human MAO-A using kynuramine as substrate incubated for 20 mins by fluorescence spectrophotometric assay
[11] = molecular target: T1, Amine oxidase [flavin-containing] B; assay: Competitive inhibition of recombinant human MAO-B using kynuramine as substrate incubated for 20 mins by Lineweaver-Burk plot analysis
[12] = molecular target: T1, Amine oxidase [flavin-containing] B; assay: Inhibition of recombinant human MAO-B using kynuramine as substrate incubated for 20 mins by fluorescence spectrophotometric assay
[13] = molecular target: T4, Amine oxidase [flavin-containing] A; assay: Inhibition of recombinant human MAO-A using kynuramine as substrate incubated for 10 mins followed by substrate addition and measured for 20 mins by Fluorescence microplate reader assay
[14] = molecular target: T1, Amine oxidase [flavin-containing] B; assay: Inhibition of recombinant human MAO-B using p-tyramine as substrate incubated for 15 mins followed by substrate addition and measured upto 20 mins by Amplex Red assay
Acetylcholinesterase [15] = molecular target: T2, Acetylcholinesterase; assay: Inhibition of electric eel AChE using acetylthiocholine iodide as substrate incubated for 6 mins followed by substrate addition by DTNB reagent based Ellman's method
Acetylcholinesterase [16] = molecular target: Acetylcholinesterase (Homo sapiens, UniProt P22303); assay: Inhibition of human AChE using acetylcholine as substrate incubated for 5 mins followed by substrate addition by Ellman's method
Sequence of Acetylcholinesterase (Homo sapiens, UniProt P22303) (P22303 whole entry): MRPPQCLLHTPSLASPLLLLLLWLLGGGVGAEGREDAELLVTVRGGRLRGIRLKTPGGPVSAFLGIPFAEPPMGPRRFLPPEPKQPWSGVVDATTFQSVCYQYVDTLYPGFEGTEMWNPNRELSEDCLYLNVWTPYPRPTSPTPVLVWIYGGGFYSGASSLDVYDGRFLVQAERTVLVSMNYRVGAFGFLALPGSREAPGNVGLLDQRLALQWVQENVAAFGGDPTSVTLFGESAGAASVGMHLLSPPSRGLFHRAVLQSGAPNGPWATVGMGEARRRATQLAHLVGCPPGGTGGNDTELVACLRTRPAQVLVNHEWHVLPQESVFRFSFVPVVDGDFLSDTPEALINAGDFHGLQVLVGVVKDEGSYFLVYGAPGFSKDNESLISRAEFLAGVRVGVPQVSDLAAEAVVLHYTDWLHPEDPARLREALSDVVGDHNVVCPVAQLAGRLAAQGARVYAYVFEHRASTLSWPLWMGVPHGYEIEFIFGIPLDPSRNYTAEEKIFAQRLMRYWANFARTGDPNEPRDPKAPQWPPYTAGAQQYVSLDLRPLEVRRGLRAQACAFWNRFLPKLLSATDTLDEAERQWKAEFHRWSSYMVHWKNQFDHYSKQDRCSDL

[17] = molecular target: T1, Amine oxidase [flavin-containing] B; assay: Inhibition of recombinant human MAO-B using p-tyramine as substrate preincubated for 15 mins followed by substrate addition and measured after 20 mins by fluorescence assay
[18] = molecular target: T1, Amine oxidase [flavin-containing] B; assay: Inhibition of recombinant human MAO-B using tyramine hydrochloride as substrate preincubated for 30 mins followed by substrate addition and measured after 30 mins by fluorescence assay
[19] = molecular target: T1, Amine oxidase [flavin-containing] B; assay: Inhibition of MAO-B (unknown origin) using benzylamine as substrate by spectrophotometric assay
[20] = molecular target: T4, Amine oxidase [flavin-containing] A; assay: Inhibition of MAO-A (unknown origin) using kynuramine as substrate by spectrophotometric assay
[21] = molecular target: Acetylcholinesterase (Electrophorus electricus) (UniProt O42275); assay: Inhibition of electric eel AChE using acetylthiocholine iodide as substrate at 1 uM preincubated for 5 mins followed by substrate addition and measured for 20 mins by DTNB reagent based Ellman's method
Sequence of Acetylcholinesterase (Electrophorus electricus) (O42275 24-633 limits assumed): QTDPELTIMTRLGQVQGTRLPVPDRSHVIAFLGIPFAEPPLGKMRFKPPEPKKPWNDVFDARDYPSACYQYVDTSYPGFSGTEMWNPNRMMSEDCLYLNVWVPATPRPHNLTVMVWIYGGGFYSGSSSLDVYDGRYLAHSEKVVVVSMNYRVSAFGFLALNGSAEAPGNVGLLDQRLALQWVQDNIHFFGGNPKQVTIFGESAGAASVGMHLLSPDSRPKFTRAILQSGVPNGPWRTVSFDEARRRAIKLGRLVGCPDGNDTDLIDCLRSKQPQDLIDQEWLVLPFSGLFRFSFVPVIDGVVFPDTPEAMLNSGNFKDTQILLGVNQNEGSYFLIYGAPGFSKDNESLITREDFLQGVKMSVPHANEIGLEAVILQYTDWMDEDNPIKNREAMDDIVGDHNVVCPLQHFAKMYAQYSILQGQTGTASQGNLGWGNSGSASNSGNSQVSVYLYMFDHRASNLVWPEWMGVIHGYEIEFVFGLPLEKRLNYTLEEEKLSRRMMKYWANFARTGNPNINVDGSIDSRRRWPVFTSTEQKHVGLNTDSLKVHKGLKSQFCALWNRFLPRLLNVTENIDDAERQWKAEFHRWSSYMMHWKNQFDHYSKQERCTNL

## Cc1ccc(C2=NO[C@H](c3ccc(Cl)c(Cl)c3)C2)cc1
[1]
  IC50: 11000 nM

## CN1CCN(c2ccc(/C=N/Nc3ccccc3)cc2)CC1
[2]
  IC50: 28 nM

## Cc1c(/N=C/c2ccc(O)cc2)c(=O)n(-c2ccccc2)n1C
[3]
  IC50: 114 nM

## O=c1oc2c(O)c(O)ccc2cc1-c1ccc(O)c(O)c1
Cholinesterase
  IC50: 8370 nM
Acetylcholinesterase [4]
  IC50: 3040 nM
[5]
  IC50: 27000 nM

## O=C1Nc2ccc(Cl)cc2/C1=N\NC(=O)c1ccc2c(c1)OCO2
[6]
  IC50: 34 nM

## COc1ccc(/C(C)=N/NC(=O)C2CC(c3ccccc3)=NO2)cc1OC (stereo not given)
[7]
  IC50: 5.9 nM

## CCOc1ccc([N+](=O)[O-])c(N/N=C/c2ccc(O)cc2)n1
[8]
  IC50: 6250 nM
[9]
  IC50: 9300 nM

## O=C1Oc2ccccc2C(=O)/C1=C/NCc1ccccc1
[10]
  IC50: 77900 nM
[11]
  Ki: 94000 nM
[12]
  IC50: 638 nM

## O=c1c(O)c(-c2cc(O)c(O)c(O)c2)oc2cc(O)cc(O)c12 [MYRICETIN]
[13]
  IC50: 9930 nM

## Cc1c(/N=C/c2cccc([N+](=O)[O-])c2)c(=O)n(-c2ccccc2)n1C
[3]
  IC50: 54 nM

## Cc1c(Cl)c(=O)oc2cc(OCCCCSC(=S)N3C(C)CCCC3C)ccc12 (stereo not given)
[14]
  IC50: 101 nM
Acetylcholinesterase [15]
  IC50: 114 nM

## Cc1c(C)c2c(c(C)c1O)CCC(C)(C(=O)NCCC1CCN(Cc3ccccc3F)CC1)O2 (stereo not given)
Acetylcholinesterase [16]
  IC50: 540 nM
[17]
  IC50: 4300 nM

## Cc1ccc(C2=NOC(c3ccc(Cl)c(Cl)c3)C2)cc1 (stereo not given)
[1]
  IC50: 12 nM

## CC1CCCCN1c1ccc(/C=N/Nc2ccccc2)cc1 (stereo not given)
[18]
  IC50: 342 nM

## O=C(/C=C/c1cccc(F)c1)c1ccc(N2CCOCC2)cc1
[19]
  IC50: 87 nM
[20]
  IC50: 45000 nM

## O=c1ccc2ccc(OCCN3CCCCC3)cc2o1
[21]
  inhibition: 30.9%

## COc1cc(-c2cc(=O)c3c(O)cc(O)cc3o2)cc(OC)c1O [TRICIN]
[13]
  IC50: 250 nM
